A short description of data set [1]: Cytotoxicity against human PANC1 cells at 30 uM cultured in dulbecco's modified eagle's medium. Type of data set: functional. Particulars: PANC-1.
Data set [2] can be described thus: Cytotoxicity against human PANC1 cells cultured in nutrient-deprived medium. Type of data set: functional, PANC-1.
Data set [3] deals with Mus musculus. In words: Toxicity in BALB/cAJcl-nu/nu mouse xenografted with human MIAPaCa2 cells assessed as body weight loss at 8.02 mg/kg, ip measured every fifth day. Type of data set: organism-based, MIA PaCa-2. Particulars: in vivo.
Data set [4] can be described thus: Antitumor activity against human MIAPaCa2 cells xenografted in BALB/cAJcl-nu/nu mouse assessed as reduction in tumor volume at 8.02 mg/kg, ip measured every fourth day relative to control. Type of data set: functional, MIA PaCa-2.
A short description of data set [5]: Antitumor activity against human MIAPaCa2 cells xenografted in BALB/cAJcl-nu/nu mouse assessed as tumor volume at 8.02 mg/kg, ip measured every fourth day (reference value: 1917.6 +/- 280.3 mm3). The data set is classed as functional, MIA PaCa-2.
Data set [6] can be described thus: Cytotoxicity against human PANC1 cells cultured in dulbecco's modified eagle's medium. The data set is classed as functional, PANC-1.
A short description of data set [7]: Cytotoxicity against human PANC1 cells at 30 uM cultured in nutrient-deprived medium. Type of data set: functional. Particulars: PANC-1.
Data set [8] is described as follows: Antitumor activity against human MIAPaCa2 cells xenografted in BALB/cAJcl-nu/nu mouse assessed as tumor volume at 7.5 mg/kg, ip measured every fourth day (reference value: 1917.6 +/- 280.3 mm3). The data set is classed as functional, MIA PaCa-2.
Data set [9] is described as follows: Antitumor activity against human MIAPaCa2 cells xenografted in BALB/cAJcl-nu/nu mouse assessed as reduction in tumor volume at 7.5 mg/kg, ip measured every fourth day relative to control. Type of data set: functional, MIA PaCa-2.
Data set [10] deals with Mus musculus. In words: Toxicity in BALB/cAJcl-nu/nu mouse xenografted with human MIAPaCa2 cells assessed as body weight loss at 7.5 mg/kg, ip measured every fifth day. The data set is classed as organism-based, MIA PaCa-2. Particulars: in vivo.

With `Oc1cc(O)cc(Cn2c3c(c4ccccc42)CCN(Cc2ccccc2)C3=S)c1`, the inhibition at 30 µM in data set [1] was less than 50%. The PC50 in data set [2] stood at 4.81 µM.

As for `Oc1cccc(Cn2c3c(c4ccccc42)CCN(Cc2ccccc2)C3=S)c1`, the values for the Activity entry in data set [3] and in data set [5] were “Non-toxic” and 1203.9 mm3, respectively. Besides, the “fold change (FC)” value in data set [4] is on record as 1.6. Further, the inhibition at 30 µM in data set [1] was less than 50%. The PC50 in [2] was 1.96 µM.

The compound `Oc1ccc(Cn2c3c(c4ccccc42)CCN(Cc2ccccc2)C3=S)cc1O` gave an inhibition at 30 µM in data set [1] of less than 50%. This compound showed a PC50 in data set [2] of 4.56 µM.

Regarding `COc1cc(O)cc(Cn2c3c(c4ccccc42)CCN(Cc2ccccc2)C3=S)c1`, the inhibition at 30 µM in [1] is less than 50%. Moreover, in [2], the PC50 came to 4.2 µM.

Compound `O=C1OCCc2c1n(Cc1cccc(O)c1)c1ccccc21` registered a PC50 in data set [2] of 131.7 µM.

Regarding `Oc1cccc(Cn2ccc3ccccc32)c1`, the PC50 in [2] stood at 173.7 µM.

In data set [1], `Oc1ccccc1Cn1c2c(c3ccccc31)CCN(Cc1ccccc1)C2=S` returned an inhibition at 30 µM of less than 50%. The compound further returned a PC50 in data set [2] of 2.23 µM.

As to `COc1cc(Cn2c3c(c4ccccc42)CCN(Cc2ccccc2)C3=S)ccc1O`, the PC50 is 8.15 µM in [6] and 2.54 µM in data set [2].

`COc1ccc(Cn2c3c(c4ccccc42)CCN(Cc2ccccc2)C3=S)cc1O`: in [1], the inhibition at 30 µM was less than 50%. The compound further returned a PC50 in [2] of 7.07 µM.

Turning to `O=C1c2c(c3ccccc3n2Cc2cccc(O)c2)CCN1Cc1ccccc1`, in [2], the PC50 was 44.8 µM.

Regarding `S=C1c2c(c3ccccc3n2Cc2ccc(Cl)cc2)CCN1Cc1ccccc1`, the inhibition at 30 µM in data set [1] and in data set [7] was less than 50% throughout.

For `Fc1ccc(Cn2c3c(c4ccccc42)CCN(Cc2ccccc2)C3=S)cc1`, the PC50 in data set [6] turned out to be 152.6 µM. For the same compound, the inhibition at 30 µM in data set [7] was less than 50%.

As for `Oc1ccc(Cn2c3c(c4ccccc42)CCN(Cc2ccccc2)C3=S)cc1`, the PC50 came out at 20 µM in [6] and 1.68 µM in data set [2].

Consider `COc1cc(C[C@H]2C(=O)OC[C@@H]2Cc2ccc(OC)c(OC)c2)ccc1O` [ARCTIGENIN], for which the inhibition at 30 µM in [1] is less than 50%. For the same compound, the Activity in [8] is 856.8 mm3; in data set [10], “Non-toxic”. This compound showed a PC50 in data set [2] of 1.27 µM. For the same compound, the “fold change (FC)” value in data set [9] came to 2.2.

As to `S=C1c2c(c3ccccc3n2Cc2ccccc2)CCN1Cc1ccccc1`, the inhibition at 30 µM in data set [1] and in [7] was less than 50% each time.

As for `COc1ccc(Cn2c3c(c4ccccc42)CCN(Cc2ccccc2)C3=S)cc1`, the inhibition at 30 µM in [1] and in [7] was less than 50% in each case.

The values above are taken from ChEMBL document CHEMBL3808384, “Synthesis of new tricyclic thiolactams as potent antitumor agent for pancreatic cancer” (Bioorg Med Chem Lett, 2016).
